ChEMBL document CHEMBL2163233, “3-Oxoisoindoline-1-carboxamides: potent, state-dependent blockers of voltage-gated sodium channel Na(V)1.7 with efficacy in rat pain models” (J Med Chem, 2012)
≈ marks a conversion by molar mass, not a printed value.

Legend:
[1] = physchem
[2] = in vitro; settings: rat, microsomes, CLH
[3] = in vitro; settings: human, microsomes, CLH
[4] = in vivo; settings: Sprague-Dawley, rat, iv, 3 umol/kg
[5] = in vivo; settings: Sprague-Dawley, rat, iv, 3 umol/kg; remark: listed apart in the source
[6] = in vivo; settings: Sprague-Dawley, rat, iv, 3 umol/kg; remark: listed apart in the source
[7] = in vivo; settings: Sprague-Dawley, rat, po, 10 umol/kg
[8] = in vivo; settings: Sprague-Dawley, rat, po, 10 umol/kg; remark: listed apart in the source
[9] = cells; settings: Homo sapiens, HEK293
[10] = in vivo; settings: Sprague-Dawley, rat, po, 10 umol/kg; remark: listed apart in the source
[11] = in vivo; settings: Sprague-Dawley, rat, iv, 3 umol/kg; remark: listed apart in the source
[12] = in vivo; settings: Sprague-Dawley, rat, po, 10 umol/kg; remark: listed apart in the source
[13] = in vitro; settings: human, Caco-2
[14] = in vivo; settings: Sprague-Dawley, rat, po, 10 umol/kg; remark: listed apart in the source
[15] = in vitro; settings: Sprague-Dawley, rat, plasma

solubility at 4 h [1] [µM]	microsomal CLint [2] [µL/min/mg]	microsomal CLint [3] [µL/min/mg]	SMILES	also measured
19 (≈ 8.65 µg/mL)	86	370	O=C(NCc1cccc(OC(F)(F)F)c1)C1c2ccccc2C(=O)N1CCc1ccccn1 (centres undefined)	
61 (≈ 27.8 µg/mL)	20	170	O=C(NCc1ccc(OC(F)(F)F)cc1)C1c2ccccc2C(=O)N1CCc1ccncc1 (centres undefined)	
15 (≈ 7.07 µg/mL)	10	59	O=C(NCc1ccc(OC(F)(F)F)cc1)C1c2cccc(O)c2C(=O)N1CCc1ccccn1 (centres undefined)	
17 (≈ 8.05 µg/mL)	10	150	O=C(NCc1ccc(OC(F)(F)F)cc1)C1c2c(F)cccc2C(=O)N1CCc1ccccn1 (centres undefined)	
28 (≈ 12.2 µg/mL)	28	50	O=C(NCc1ccc(OC(F)(F)F)cc1)C1c2ccccc2C(=O)N1C[C@@H]1CCCO1 (some centres undefined)	
28 (≈ 13.1 µg/mL)	< 10	82	CC(Cc1ccccn1)N1C(=O)c2ccccc2C1C(=O)NCc1ccc(OC(F)(F)F)cc1 (centres undefined)	
310 (≈ 141 µg/mL)	< 10	33	O=C(NCc1ccc(OC(F)(F)F)cc1)C1c2ccccc2C(=O)N1CCc1ncccn1 (centres undefined)	
13 (≈ 6.29 µg/mL)	67	340	CC(C)(Cc1ccccn1)N1C(=O)c2ccccc2C1C(=O)NCc1ccc(OC(F)(F)F)cc1 (centres undefined)	
1 (≈ 0.469 µg/mL)	59	190	Cc1cccc2c1C(C(=O)NCc1ccc(OC(F)(F)F)cc1)N(CCc1ccccn1)C2=O (centres undefined)	
280 (≈ 126 µg/mL)	20	300	O=C(NCc1ccccc1Br)C1c2ccccc2C(=O)N1CCc1ccccn1 (centres undefined)	
42 (≈ 19.7 µg/mL)			O=C(NCc1ccc(OCC(F)(F)F)cc1)C1c2ccccc2C(=O)N1CCc1ccccn1 (centres undefined)	
3 (≈ 1.43 µg/mL)	< 10	44	O=C(NCc1ccc(OC(F)(F)F)cc1)C1c2ccccc2C(=O)N1CCOCC(F)(F)F (centres undefined)	
	57	> 500	CC1(C(=O)NCc2ccc(OC(F)(F)F)cc2)c2ccccc2C(=O)N1CCc1ccccn1 (racemic)	
360 (≈ 145 µg/mL)			COc1ccc(CNC(=O)C2c3ccccc3C(=O)N2CCc2ccccn2)cc1 (centres undefined)	
6 (≈ 2.82 µg/mL)	31	> 500	O=C(NCc1ccc(OC(F)(F)F)cc1)C1c2ccccc2C(=O)N1CCCc1ccccn1 (centres undefined)	
11 (≈ 4.91 µg/mL)	< 10	< 10	O=C(NCc1ccc(OC(F)(F)F)cc1)C1c2ccccc2C(=O)N1CCC(F)(F)F (centres undefined)	
27 (≈ 13.3 µg/mL)	110	220	O=C(NCc1ccc(F)c(OC(F)(F)F)c1)C1c2ccccc2C(=O)N1CCc1ncc(F)cn1 (centres undefined)	
30 (≈ 15.2 µg/mL)	< 10	43	CC(C)(C)OC(=O)N1CC(N2C(=O)c3ccccc3C2C(=O)NCc2ccc(OC(F)(F)F)cc2)C1 (centres undefined)	
6 (≈ 2.91 µg/mL)	< 10	50	COc1cccc2c1C(=O)N(CCc1ccccn1)C2C(=O)NCc1ccc(OC(F)(F)F)cc1 (centres undefined)	
57 (≈ 25.7 µg/mL)	31	120	O=C(NCc1ccc(Br)cc1)C1c2ccccc2C(=O)N1CCc1ccccn1 (centres undefined)	
< 1	39	190	O=C(NCc1ccc(OC(F)(F)F)cc1)C1c2ccccc2C(=O)N1CCOc1ccccn1 (centres undefined)	
< 1	23	26	O=C(NCc1ccc(OC(F)(F)F)cc1)C1c2c(O)cccc2C(=O)N1CCc1ccccn1 (centres undefined)	
25 (≈ 11.9 µg/mL)	< 10	53	O=C(NCc1ccc(OC(F)(F)F)cc1)C1c2ccccc2C(=O)N1CCc1ncc(F)cn1 (centres undefined)	half-life [4]: 24 min; Vd [5]: 1.1 L/kg; AUC [6]: 1.4 µM·h; bioavailability [7]: 44%; half-life [8]: 138 min; Tmax [10]: 18 min; clearance [11]: 37 mL/min/kg; Cmax [12]: 800 nM; AUC [14]: 2.1 µM·h; fraction unbound [15]: 0.092

More lines, now with the values behind:

SMILES	solubility at 4 h [1] [µM]	microsomal CLint [2] [µL/min/mg]	microsomal CLint [3] [µL/min/mg]	also measured
O=C(NCc1ccc(OCC(F)(F)F)nc1)C1c2ccccc2C(=O)N1CCc1ccccn1 (centres undefined)	88 (≈ 41.4 µg/mL)	< 10	40	
O=C(NCc1cccc(Br)c1)C1c2ccccc2C(=O)N1CCc1ccccn1 (centres undefined)	6 (≈ 2.7 µg/mL)	47	310	
COc1cccc2c1C(C(=O)NCc1ccc(OC(F)(F)F)cc1)N(CCc1ccccn1)C2=O (centres undefined)	4 (≈ 1.94 µg/mL)	37	97	
O=C(NCc1ccc(OC(F)(F)F)cc1)C1c2cccc(O)c2C(=O)N1CCc1ncc(F)cn1 (centres undefined)	2 (≈ 0.981 µg/mL)	36	42	
CC(C)(C)OC(=O)N1CCC(N2C(=O)c3ccccc3C2C(=O)NCc2ccc(OC(F)(F)F)cc2)CC1 (centres undefined)	7 (≈ 3.73 µg/mL)	89	170	
O=C(NCc1ccc(OC(F)(F)F)cc1)C1c2ccccc2C(=O)N1CCc1cccnc1 (centres undefined)	69 (≈ 31.4 µg/mL)	28	100	
O=C(NCc1ccc(F)c(C(F)(F)F)c1)C1c2ccccc2C(=O)N1CCc1ncc(F)cn1 (centres undefined)	14 (≈ 6.67 µg/mL)	< 10	< 10	half-life [4]: 24 min; Vd [5]: 0.9 L/kg; AUC [6]: 1.6 µM·h; bioavailability [7]: 4%; half-life [8]: 72 min; IC50 [9]: 33 µM; Tmax [10]: 18 min; clearance [11]: 32 mL/min/kg; Cmax [12]: 100 nM; Papp [13]: 39 ×10⁻⁶ cm/s; AUC [14]: 0.2 µM·h; fraction unbound [15]: 0.13
O=C(NCc1ccc(OC(F)(F)F)cc1)C1c2cccc(F)c2C(=O)N1CCc1ccccn1 (centres undefined)	26 (≈ 12.3 µg/mL)	16	170	
O=C(NCc1ccc(CC(F)(F)F)cc1)C1c2ccccc2C(=O)N1CCc1ccccn1 (centres undefined)	120 (≈ 54.4 µg/mL)	42	190	
CC(C)(CN1C(=O)c2ccccc2C1C(=O)NCc1ccc(OC(F)(F)F)cc1)c1ccccn1 (centres undefined)	6 (≈ 2.9 µg/mL)	< 10	40	
N#C[C@H]1CC[C@H](N2C(=O)c3ccccc3C2C(=O)NCc2ccc(OC(F)(F)F)cc2)CC1 (some centres undefined)	200 (≈ 91.5 µg/mL)	11	< 10	
O=C(NCc1ccc(OC(F)(F)F)cc1)C1c2ccccc2C(=O)N1CC(F)(F)c1ccccn1 (centres undefined)	2 (≈ 0.983 µg/mL)	30	57	
O=C(NCc1ccc(OC(F)(F)F)cc1)C1c2ccccc2C(=O)N1CCN1CCOCC1 (centres undefined)	200 (≈ 92.7 µg/mL)	< 10	49	
O=C(NCc1ccc(OC(F)(F)F)cc1)C1c2ccccc2C(=O)N1C1CC(F)(F)C1 (centres undefined)	4 (≈ 1.76 µg/mL)	< 10	15	
O=C(NCc1ccc(OC(F)(F)F)cc1)C1c2ccccc2C(=O)N1C1CCC(F)(F)CC1 (single isomer, unassigned)				IC50 [9]: > 10 µM
Cc1ccc(NC(=O)C2c3ccccc3C(=O)N2CCc2ccccn2)cc1C (centres undefined)	34 (≈ 13.1 µg/mL)			
O=C(NCc1ccc(OC(F)F)nc1)C1c2ccccc2C(=O)N1CCc1ccccn1 (centres undefined)	32 (≈ 14 µg/mL)	< 10	33	
CC(NC(=O)C1c2ccccc2C(=O)N1CCc1ccccn1)c1ccc(OCC(F)(F)F)cc1 (centres undefined)	34 (≈ 16.4 µg/mL)	49	204	
O=C(NCc1ccc(OC(F)(F)F)cc1)C1c2ccccc2C(=O)N1CC1CC(F)(F)C1 (centres undefined)	< 1	38	25	
CCCCNc1ccc(C(=O)OCCN(C)C)cc1 [TETRACAINE]				IC50 [9]: 33 µM
CN(C)CCC=C1c2ccccc2CCc2ccccc21 [AMITRIPTYLINE]				IC50 [9]: 12 µM
N#CCCN1C(=O)c2ccccc2C1C(=O)NCc1ccc(OC(F)(F)F)cc1 (centres undefined)	45 (≈ 18.2 µg/mL)	16	11	
O=C(NCc1ccc(OC(F)(F)F)cc1)C1c2ccccc2C(=O)N1CCC1CCOCC1 (centres undefined)	20 (≈ 9.25 µg/mL)	< 10	71	
O=C(NCc1cccc(OC(F)(F)F)c1)C1c2ccccc2C(=O)N1CCc1ncc(F)cn1 (centres undefined)	61 (≈ 28.9 µg/mL)	28	180	half-life [4]: 24 min; Vd [5]: 0.7 L/kg; AUC [6]: 2.1 µM·h; bioavailability [7]: 6%; half-life [8]: 486 min; Tmax [10]: 24 min; clearance [11]: 29 mL/min/kg; Cmax [12]: 90 nM; Papp [13]: 50 ×10⁻⁶ cm/s; AUC [14]: 0.4 µM·h; fraction unbound [15]: 0.18
O=C(NCc1ccc(C(F)(F)F)cc1)C1c2ccccc2C(=O)N1CCc1ccccn1 (centres undefined)	7 (≈ 3.08 µg/mL)	58	180	
